Laboratory results as given in the supplement of paper PMC7840683.

Test system: HepaRG
Test: LDH release cytotoxicity, % of total lysis control; higher = more cytotoxic
Details: 48 h
How it was run: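 Single-lot HepaRG cells on collagen I-coated 96-well plates were exposed for 48 h in duplicate, in serum-free induction medium with 0.5% DMSO, to eight-point half-log series (test chemicals top 100 µM). Total lysis wells received 0.1% Triton X, and LDH leakage into 50 µL spent medium was read as resorufin fluorescence (CytoTox-ONE, Tecan Safire). Percent cytotoxicity was normalized to on-plate vehicle and total lysis controls and averaged over the duplicates.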

Nc1ccc(N=Nc2ccccc2)cc1 [4-Aminoazobenzene]
Details	LDH release cytotoxicity [%]
0.03162 µM	-0.0491
0.1 µM	-1.19
0.3162278 µM	-1.19
1 µM	-1.05
3.16228 µM	-1.2
10 µM	-0.585
31.6228 µM	0.184
100 µM	0.63

CCN(CC)C(=O)c1cccc(C)c1 [DEET]
Details	LDH release cytotoxicity [%]
0.03305 µM	-1.66
0.1045 µM	-2.06
0.330458 µM	-2.58
1.045 µM	-2.44
3.30458 µM	-2.59
10.45 µM	-2.53
33.0458 µM	-1.85
104.5 µM	-1.16

c1ccc(NNc2ccccc2)cc1 [1,2-Diphenylhydrazine]
Details	LDH release cytotoxicity [%]
0.03162 µM	-1.61
0.1 µM	-1.5
0.3162278 µM	-1.76
1 µM	-2.09
3.16228 µM	-1.82
10 µM	-1.49
31.6228 µM	-1.72
100 µM	-0.591

CCCN(CCC)c1c([N+](=O)[O-])cc(C(F)(F)F)c(N)c1[N+](=O)[O-] [Prodiamine]
Details	LDH release cytotoxicity [%]
0.03162 µM	-2.33
0.1 µM	-1.51
0.3162278 µM	-2.72
1 µM	-3.4
3.16228 µM	0.15
10 µM	-1.16
31.6228 µM	-0.459
100 µM	8.35

[OH-].c1cc[c]([Sn+]([c]2ccccc2)[c]2ccccc2)cc1 [Triphenyltin hydroxide]
Details	LDH release cytotoxicity [%]
0.03162 µM	-0.226
0.1 µM	-1.04
0.3162278 µM	-0.513
1 µM	46.3
3.16228 µM	68.1
10 µM	57.1
31.6228 µM	63.5
100 µM	64.4

CCCCCCCCCCCCCO [1-Tridecanol]
Details	LDH release cytotoxicity [%]
0.03162 µM	-1.51
0.1 µM	-0.843
0.3162278 µM	-0.758
1 µM	-0.914
3.16228 µM	-0.263
10 µM	0.564
31.6228 µM	0.347
100 µM	3.78

CCC(C)(C)c1ccc(O)cc1 [4-(2-Methylbutan-2-yl)phenol]
Details	LDH release cytotoxicity [%]
0.03162 µM	-0.822
0.1 µM	-1.57
0.3162278 µM	-1.05
1 µM	-1.22
3.16228 µM	-1.65
10 µM	-0.249
31.6228 µM	-1.75
100 µM	0.707

CC(C)C1(C)N=C(c2ncccc2C(=O)O)NC1=O (centres undefined) [Imazapyr]
Details	LDH release cytotoxicity [%]
0.03162 µM	-1.83
0.1 µM	-1.02
0.3162278 µM	-1.62
1 µM	-0.872
3.16228 µM	-0.897
10 µM	-1.03
31.6228 µM	-0.823
100 µM	0.363

Cn1c(=O)c2[nH]cnc2n(C)c1=O [Theophylline]
Details	LDH release cytotoxicity [%]
0.03162 µM	-1.27
0.1 µM	-2.1
0.3162278 µM	-1.54
1 µM	-1.74
3.16228 µM	-1.51
10 µM	-1.15
31.6228 µM	-0.719
100 µM	-0.479

O=C(N[C@H]1CN2CCC1CC2)c1cc2ccoc2cn1 [(R)-N-(Quinuclidin-3-yl)furo(2,3-C)pyridine-5-carboxamide]
Details	LDH release cytotoxicity [%]
0.03162 µM	-0.025
0.1 µM	1.01
0.3162278 µM	0.216
1 µM	0.437
3.16228 µM	1.24
10 µM	0.814
31.6228 µM	1.28
100 µM	1.77

CCCCCCCCCC(=O)O [Decanoic acid]
Details	LDH release cytotoxicity [%]
0.03162 µM	-1.36
0.1 µM	-2.46
0.3162278 µM	-1.69
1 µM	-1.7
3.16228 µM	-1.42
10 µM	-1.16
31.6228 µM	-0.917
100 µM	-0.408

c1nc[nH]n1 [1H-1,2,4-Triazole]
Details	LDH release cytotoxicity [%]
0.03162 µM	0.679
0.1 µM	0.298
0.3162278 µM	-1.06
1 µM	-0.618
3.16228 µM	0.566
10 µM	0.541
31.6228 µM	1.08
100 µM	2.04

CC(C)(C)C(O)C(Cc1ccc(Cl)cc1)n1cncn1 (centres undefined) [Paclobutrazol]
Details	LDH release cytotoxicity [%]
0.03162 µM	-0.9138
0.1 µM	-1.5
0.3162278 µM	-1.02
1 µM	-1.49
3.16228 µM	-1.96
10 µM	-1.1
31.6228 µM	-1.36
100 µM	-0.278

CON(C)C(=O)Nc1ccc(Cl)c(Cl)c1 [Linuron]
Details	LDH release cytotoxicity [%]
0.03162 µM	-1.04
0.1 µM	-1.18
0.3162278 µM	-1.18
1 µM	-0.927
3.16228 µM	-1.44
10 µM	-0.708
31.6228 µM	0.755
100 µM	0.919

COCC(C)N(C(=O)CCl)c1c(C)csc1C (centres undefined) [Dimethenamid]
Details	LDH release cytotoxicity [%]
0.031623 µM	-1.73
0.1 µM	-3.31
0.316228 µM	-2.49
1 µM	-2.95
3.16228 µM	-2.64
10 µM	-3.81
31.6228 µM	-2.28
100 µM	0.11

O=C(O)c1nc(Cl)ccc1Cl [Clopyralid-olamine]
Details	LDH release cytotoxicity [%]
0.03162 µM	-1.75
0.1 µM	-1.37
0.3162278 µM	-2.18
1 µM	-3.35
3.16228 µM	-1.65
10 µM	-1.04
31.6228 µM	-1.18
100 µM	0.521

COc1cc(C=O)ccc1O [4-Hydroxy-3-methoxybenzaldehyde]
Details	LDH release cytotoxicity [%]
0.031623 µM	-0.0885
0.1 µM	-2.63
0.316228 µM	-3.71
1 µM	-4.06
3.16228 µM	-3.91
10 µM	-3.69
31.6228 µM	-3.12
100 µM	0.307

CCOC(=O)OC(C)OC(=O)c1ccc2c(c1)cc(C(=O)NC1CCN(C(C)C)CC1)n2Cc1cc(-c2ccc(Cl)s2)on1 (centres undefined) [AVE6324]
Details	LDH release cytotoxicity [%]
0.02988 µM	-0.39
0.0945 µM	-0.573
0.298835 µM	-0.553
0.945 µM	-1.09
2.98835 µM	-0.186
9.45 µM	1.15
29.8835 µM	1.55
94.5 µM	48.4
